Test results published in US20030190642A1, “Thymus expressed human cytochrome p450(p450tec)” (priority 2003, published 2003).

Target: T1, P450TEC (Homo sapiens, UniProt Q7Z449)
T1 construct: One of 5 clones contained a putative full length cytochrome, which we have named P450TEC; made in house; host or cells: Sf9 insect cells, recombinant baculovirus (pVL1392 transfer vector); microsomal fraction
T1 sequence (Q7Z449 1-544): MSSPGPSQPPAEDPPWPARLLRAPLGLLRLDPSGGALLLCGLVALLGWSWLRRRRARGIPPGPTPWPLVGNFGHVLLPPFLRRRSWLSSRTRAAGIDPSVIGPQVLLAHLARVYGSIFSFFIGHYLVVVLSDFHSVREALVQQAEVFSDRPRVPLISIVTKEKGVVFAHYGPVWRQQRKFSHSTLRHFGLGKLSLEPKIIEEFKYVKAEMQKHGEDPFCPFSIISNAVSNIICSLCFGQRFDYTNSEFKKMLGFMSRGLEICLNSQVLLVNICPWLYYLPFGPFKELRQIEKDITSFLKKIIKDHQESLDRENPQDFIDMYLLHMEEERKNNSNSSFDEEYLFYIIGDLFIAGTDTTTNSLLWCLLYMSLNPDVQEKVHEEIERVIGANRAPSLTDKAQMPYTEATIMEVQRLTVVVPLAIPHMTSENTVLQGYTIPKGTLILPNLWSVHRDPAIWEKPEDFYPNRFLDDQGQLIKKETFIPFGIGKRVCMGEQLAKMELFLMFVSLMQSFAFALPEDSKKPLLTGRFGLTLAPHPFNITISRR
Experiment: Arachidonic acid metabolism by baculovirus-Sf9-expressed P450TEC microsomes (HPLC, LC-MS)
Format: biochemical
Protocol: Cultured Sf9 insect cells expressing recombinant P450TEC were harvested 3 days after infection, washed twice with phosphate buffered saline (PBS) and resuspended in lysis buffer (100 mM Tris-HCl, pH 7.4, 1 mM EDTA, 0.5 M sucrose) containing protease inhibitor cocktail (Roche Diagnostics GmbH, Mannheim, Germany, 1 tablet per 10 ml lyses buffer). Cells were disrupted by brief sonication (5-8 bursts of 5 seconds duration) on ice using 550 Sonic Dismembrator (Fisher Scientific, Canada). The resulting cell lysates were successively centrifuged, at 800g, and 10,000g for 10 min each time at 4° C. Microsomal fractions from the 10,000g supernatants were pelleted by centrifugation at ˜1 00,000g for 60 min at 4° C. The pellet was then resuspended in microsomes storage buffer (10 mM Tris-HCl, pH 7.4, 5 mM MgCl2, 1mM EDTA, 150 mM KCI and 10% glycerol) and stored at −70° C. […]
For MS and MS/MS analyses of arachidonic acid metabolites, 5 μM of unlabeled arachidonic acid was incubated for 60 min. […] Similarly, ethyl acetate extracts from microsomal incubations without arachidonic acid was also processed and analyzed by LC-MS. […]

metabolite formed from arachidonic acid by P450TEC (P450TEC microsomes, NADPH, 1 or 20 μM [1-14C] arachidonic acid, 60 min, 37° C.): monohydroxylated arachidonic acid
Compound: CCCCCC=CCC=CCC=CCC=CCCCC(=O)O [arachidonic acid, 5,8, 11, 14-eicosatetraenoic acid]
linearity of arachidonic acid metabolite formation with time (5 μM [1-14C] arachidonic acid, NADPH-CYP oxidoreductase+b5 and NADPH, 15, 30 and 60 min): directly porportional to time of incubation
